# Experiments:
# Test in all cases: relative viability (nuclei count vs DMSO), 5 days (fraction); higher = more cells survive
# A-427 = test system: A-427
# Outline: (§1)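 Relative viability equals treated-well nuclei counts divided by vehicle-well nuclei counts. Counts came from 4× images of lung cancer cell lines grown in 1536-well plates for 5 days after pin-tool dosing on the day after seeding. Dosing used one drug alone or a fixed anchor-drug dose plus five library-drug doses (not always all listed) in √10 steps, and values are medians of duplicate plates.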
# LXF-289 = test system: LXF-289
# Outline: as §1
# PC-14 = test system: PC-14
# Outline: as §1
# NCI-H2405 = test system: NCI-H2405
# Outline: as §1
# BEN = test system: BEN
# Outline: as §1
# HARA = test system: HARA
# Outline: as §1
# NCI-H3122 = test system: NCI-H3122
# Outline: as §1
# NCI-H2170 = test system: NCI-H2170
# Outline: as §1
# RERF-LC-KJ = test system: RERF-LC-KJ
# Outline: as §1
# NCI-H1793 = test system: NCI-H1793
# Outline: as §1
# LU99A = test system: LU99A
# Outline: as §1
# NCI-H23 = test system: NCI-H23
# Outline: as §1
# NCI-H2085 = test system: NCI-H2085
# Outline: as §1
# NCI-H1666 = test system: NCI-H1666
# Outline: as §1
# NCI-H1437 = test system: NCI-H1437
# Outline: as §1
# LOU-NH91 = test system: LOU-NH91
# Outline: as §1
# NCI-H1755 = test system: NCI-H1755
# Outline: as §1
# NCI-H1993 = test system: NCI-H1993
# Outline: as §1
# LK-2 = test system: LK-2
# Outline: as §1
structure (smiles),measurement,setting,value
C=C1C(=O)O[C@@H](CCCCCCCC)[C@@H]1C(=O)O [C-75] + CC1(C)CCC(c2ccc(Cl)cc2)=C(CN2CCN(c3ccc(C(=O)NS(=O)(=O)c4ccc(N[C@H](CCN5CCOCC5)CSc5ccccc5)c(S(=O)(=O)C(F)(F)F)c4)cc3)CC2)C1 [Navitoclax] (partner 0.5 µM),relative viability,A-427; first compound 0.08 µM,0.935
same,relative viability,A-427; first compound 0.253 µM,1.04
same,relative viability,A-427; first compound 0.8 µM,0.915
same,relative viability,A-427; first compound 2.53 µM,0.903
same,relative viability,A-427; first compound 8 µM,0.93
same,relative viability,LXF-289; first compound 0.08 µM,0.896
same,relative viability,LXF-289; first compound 0.253 µM,0.999
same,relative viability,LXF-289; first compound 0.8 µM,0.91
same,relative viability,LXF-289; first compound 2.53 µM,0.873
same,relative viability,LXF-289; first compound 8 µM,0.928
same,relative viability,PC-14; first compound 0.08 µM,1.01
same,relative viability,PC-14; first compound 0.253 µM,1
same,relative viability,PC-14; first compound 0.8 µM,0.977
same,relative viability,PC-14; first compound 2.53 µM,0.911
same,relative viability,PC-14; first compound 8 µM,0.978
same,relative viability,NCI-H2405; first compound 0.08 µM,0.93
same,relative viability,NCI-H2405; first compound 0.253 µM,0.633
same,relative viability,NCI-H2405; first compound 0.8 µM,0.863
same,relative viability,NCI-H2405; first compound 2.53 µM,0.83
same,relative viability,NCI-H2405; first compound 8 µM,0.802
same,relative viability,BEN; first compound 0.08 µM,0.0695
same,relative viability,BEN; first compound 0.253 µM,0.0673
same,relative viability,BEN; first compound 0.8 µM,0.0656
same,relative viability,BEN; first compound 2.53 µM,0.0589
same,relative viability,BEN; first compound 8 µM,0.0596
same,relative viability,HARA; first compound 0.08 µM,1.07
same,relative viability,HARA; first compound 0.253 µM,1.26
same,relative viability,HARA; first compound 0.8 µM,1.12
same,relative viability,HARA; first compound 8 µM,1.14
same,relative viability,NCI-H3122; first compound 0.08 µM,0.973
same,relative viability,NCI-H3122; first compound 0.253 µM,1.05
same,relative viability,NCI-H3122; first compound 0.8 µM,0.986
same,relative viability,NCI-H3122; first compound 8 µM,1.09
same,relative viability,NCI-H2170; first compound 0.08 µM,0.71
same,relative viability,NCI-H2170; first compound 0.253 µM,0.641
same,relative viability,NCI-H2170; first compound 0.8 µM,0.556
same,relative viability,NCI-H2170; first compound 2.53 µM,0.525
same,relative viability,NCI-H2170; first compound 8 µM,0.586
same,relative viability,RERF-LC-KJ; first compound 0.08 µM,0.91
same,relative viability,RERF-LC-KJ; first compound 0.253 µM,1.47
same,relative viability,RERF-LC-KJ; first compound 0.8 µM,0.881
same,relative viability,RERF-LC-KJ; first compound 2.53 µM,0.843
same,relative viability,RERF-LC-KJ; first compound 8 µM,0.802
same,relative viability,NCI-H1793; first compound 0.08 µM,0.494
same,relative viability,NCI-H1793; first compound 0.253 µM,0.564
same,relative viability,NCI-H1793; first compound 0.8 µM,0.313
same,relative viability,NCI-H1793; first compound 2.53 µM,0.308
same,relative viability,NCI-H1793; first compound 8 µM,0.29
same,relative viability,LU99A; first compound 0.08 µM,0.795
same,relative viability,LU99A; first compound 0.253 µM,0.845
same,relative viability,LU99A; first compound 0.8 µM,0.695
same,relative viability,LU99A; first compound 2.53 µM,0.588
same,relative viability,LU99A; first compound 8 µM,0.594
same,relative viability,NCI-H23; first compound 0.08 µM,0.801
same,relative viability,NCI-H23; first compound 0.253 µM,1.01
same,relative viability,NCI-H23; first compound 0.8 µM,0.666
same,relative viability,NCI-H23; first compound 2.53 µM,0.672
same,relative viability,NCI-H23; first compound 8 µM,0.717
same,relative viability,NCI-H2085; first compound 0.08 µM,1.15
same,relative viability,NCI-H2085; first compound 0.253 µM,1.2
same,relative viability,NCI-H2085; first compound 0.8 µM,1.07
same,relative viability,NCI-H2085; first compound 2.53 µM,1.11
same,relative viability,NCI-H2085; first compound 8 µM,1.08
same,relative viability,NCI-H1666; first compound 0.08 µM,0.94
same,relative viability,NCI-H1666; first compound 0.253 µM,1.19
same,relative viability,NCI-H1666; first compound 0.8 µM,0.742
same,relative viability,NCI-H1666; first compound 2.53 µM,0.891
same,relative viability,NCI-H1666; first compound 8 µM,0.567
same,relative viability,NCI-H1437; first compound 0.08 µM,1.06
same,relative viability,NCI-H1437; first compound 0.253 µM,1.13
same,relative viability,NCI-H1437; first compound 0.8 µM,1.09
same,relative viability,NCI-H1437; first compound 2.53 µM,1.09
same,relative viability,NCI-H1437; first compound 8 µM,1.08
same,relative viability,LOU-NH91; first compound 0.08 µM,0.756
same,relative viability,LOU-NH91; first compound 0.253 µM,0.679
same,relative viability,LOU-NH91; first compound 0.8 µM,0.643
same,relative viability,LOU-NH91; first compound 2.53 µM,0.55
same,relative viability,LOU-NH91; first compound 8 µM,0.776
same,relative viability,NCI-H1755; first compound 0.08 µM,0.945
same,relative viability,NCI-H1755; first compound 0.253 µM,0.935
same,relative viability,NCI-H1755; first compound 0.8 µM,1.02
same,relative viability,NCI-H1755; first compound 2.53 µM,0.711
same,relative viability,NCI-H1755; first compound 8 µM,0.957
same,relative viability,NCI-H1993; first compound 0.08 µM,1.03
same,relative viability,NCI-H1993; first compound 0.253 µM,0.944
same,relative viability,NCI-H1993; first compound 0.8 µM,0.995
same,relative viability,NCI-H1993; first compound 2.53 µM,0.938
same,relative viability,NCI-H1993; first compound 8 µM,1.11
same,relative viability,LK-2; first compound 0.08 µM,0.819
same,relative viability,LK-2; first compound 0.253 µM,0.883
same,relative viability,LK-2; first compound 0.8 µM,1.02
same,relative viability,LK-2; first compound 2.53 µM,0.769
same,relative viability,LK-2; first compound 8 µM,0.648
Oc1nc(-c2ccc(C(F)(F)F)cc2)nc2c1CSCC2 [XAV939] + CC1(C)CCC(c2ccc(Cl)cc2)=C(CN2CCN(c3ccc(C(=O)NS(=O)(=O)c4ccc(N[C@H](CCN5CCOCC5)CSc5ccccc5)c(S(=O)(=O)C(F)(F)F)c4)cc3)CC2)C1 [Navitoclax] (partner 0.5 µM),relative viability,A-427; first compound 0.08 µM,1.03
same,relative viability,A-427; first compound 0.253 µM,0.989
same,relative viability,A-427; first compound 0.8 µM,0.9
same,relative viability,A-427; first compound 2.53 µM,0.809
same,relative viability,LXF-289; first compound 0.08 µM,0.92
same,relative viability,LXF-289; first compound 0.253 µM,0.911
same,relative viability,LXF-289; first compound 0.8 µM,0.949
same,relative viability,LXF-289; first compound 2.53 µM,0.972
same,relative viability,PC-14; first compound 0.08 µM,1.04
same,relative viability,PC-14; first compound 0.253 µM,0.906
same,relative viability,PC-14; first compound 0.8 µM,1.03
same,relative viability,PC-14; first compound 2.53 µM,0.956
same,relative viability,NCI-H2405; first compound 0.08 µM,0.945
same,relative viability,NCI-H2405; first compound 0.253 µM,0.762
same,relative viability,NCI-H2405; first compound 0.8 µM,0.886
same,relative viability,NCI-H2405; first compound 2.53 µM,0.555
same,relative viability,BEN; first compound 0.08 µM,0.0604
same,relative viability,BEN; first compound 0.253 µM,0.0746
same,relative viability,BEN; first compound 0.8 µM,0.0568
same,relative viability,HARA; first compound 0.08 µM,1.15
same,relative viability,HARA; first compound 0.253 µM,0.609
same,relative viability,HARA; first compound 0.8 µM,1.17
same,relative viability,HARA; first compound 2.53 µM,1.17
same,relative viability,NCI-H3122; first compound 0.08 µM,1.03
same,relative viability,NCI-H3122; first compound 0.253 µM,1.04
same,relative viability,NCI-H3122; first compound 0.8 µM,1.04
same,relative viability,NCI-H3122; first compound 2.53 µM,0.886
same,relative viability,NCI-H2170; first compound 0.08 µM,0.427
same,relative viability,NCI-H2170; first compound 0.253 µM,0.441
same,relative viability,NCI-H2170; first compound 0.8 µM,0.501
same,relative viability,NCI-H2170; first compound 2.53 µM,0.422
same,relative viability,RERF-LC-KJ; first compound 0.08 µM,0.905
same,relative viability,RERF-LC-KJ; first compound 0.253 µM,0.999
same,relative viability,RERF-LC-KJ; first compound 0.8 µM,0.804
same,relative viability,RERF-LC-KJ; first compound 2.53 µM,0.452
same,relative viability,NCI-H1793; first compound 0.08 µM,0.593
same,relative viability,NCI-H1793; first compound 0.253 µM,0.442
same,relative viability,NCI-H1793; first compound 0.8 µM,0.369
same,relative viability,NCI-H1793; first compound 2.53 µM,0.452
same,relative viability,LU99A; first compound 0.08 µM,0.939
same,relative viability,LU99A; first compound 0.253 µM,0.708
same,relative viability,LU99A; first compound 0.8 µM,0.683
same,relative viability,LU99A; first compound 2.53 µM,0.708
same,relative viability,NCI-H23; first compound 0.08 µM,0.859
same,relative viability,NCI-H23; first compound 0.253 µM,0.776
same,relative viability,NCI-H23; first compound 0.8 µM,0.531
same,relative viability,NCI-H23; first compound 2.53 µM,0.755
same,relative viability,NCI-H2085; first compound 0.08 µM,1.1
same,relative viability,NCI-H2085; first compound 0.253 µM,1.1
same,relative viability,NCI-H2085; first compound 0.8 µM,1.13
same,relative viability,NCI-H2085; first compound 2.53 µM,0.882
same,relative viability,NCI-H1666; first compound 0.08 µM,0.847
same,relative viability,NCI-H1666; first compound 0.253 µM,0.721
same,relative viability,NCI-H1666; first compound 0.8 µM,0.903
same,relative viability,NCI-H1666; first compound 2.53 µM,0.469
same,relative viability,NCI-H1437; first compound 0.08 µM,1.14
same,relative viability,NCI-H1437; first compound 0.253 µM,0.931
same,relative viability,NCI-H1437; first compound 0.8 µM,1.12
same,relative viability,NCI-H1437; first compound 2.53 µM,0.888
same,relative viability,LOU-NH91; first compound 0.08 µM,0.636
same,relative viability,LOU-NH91; first compound 0.253 µM,0.627
same,relative viability,LOU-NH91; first compound 0.8 µM,0.692
same,relative viability,LOU-NH91; first compound 2.53 µM,0.652
same,relative viability,NCI-H1755; first compound 0.08 µM,0.945
same,relative viability,NCI-H1755; first compound 0.253 µM,0.796
same,relative viability,NCI-H1755; first compound 0.8 µM,0.907
same,relative viability,NCI-H1755; first compound 2.53 µM,0.853
same,relative viability,NCI-H1993; first compound 0.8 µM,0.698
same,relative viability,NCI-H1993; first compound 2.53 µM,0.787
same,relative viability,LK-2; first compound 0.08 µM,1.07
same,relative viability,LK-2; first compound 0.253 µM,0.757
same,relative viability,LK-2; first compound 0.8 µM,0.928
same,relative viability,LK-2; first compound 2.53 µM,0.631

# — the supplement of paper PMC10307832
